Data published in US12128040B2, “Selective estrogen receptor degraders” (Eli Lilly and Company, priority 2018, dated 2024).

Assays:
ERα receptor = assay: PRα inhibition (ERα functional antagonism) cell assay in MCF7 cells; assay type: cell-based; conditions: Homo sapiens, pretreated with 0.47 nM estradiol, n=15, read-out: Relative IC50 (nM), PRα inhibition
Text: The purpose of the following PRα inhibition (ERα functional antagonism) cell assay is to determine the antagonistic activity of a test compound against the ERα receptor. An antagonist in this assay is expected to block the function of the ERα receptor.
Carry out the assay conditions as detailed in the ERα degradation Cell base Acumen assay above, using the MCF7 cell line except that, prior to test compound dispensing, remove the media from the cell plate and pretreat all wells except for the negative control wells (column 24 of the plate) with assay media containing 0.47 nM estradiol for 30 minutes. In this assay, carry out immunostaining for the detection of PRα and scan the plates with ACUMEN EXPLORER™ [Laser-scanning fluorescence microplate cytometer manufactured by TTP LABTECH LTD] to measure PRα. Image analysis is based on cellular fluorescent signals for identifying positive cells. Identify PRα positive cells by mean intensity. Use total intensity at 575-640 from propidium iodide/DNA to identify individual cells. Assay output is % PRα positive cells. Determine the IC50 by curve fitting to a four parameter logistic for each output using GENE DATA™.

[1] = test system: PGR (Progesterone Receptor alpha) gene expression; assay: In vivo target inhibition (IVTI) assay (PGR RT-qPCR) in MCF7 tumors; design: species or system mice; conditions: MCF7 tumor xenograft, 30 mg/kg orally, 24 hours
Procedure: The purpose of this IVTI assay is to measure the ability of a test compound (SERD) to inhibit PGR (Progesterone Receptor alpha) gene expression (transcription) downstream of ERα in xenograft tumors implanted in mice.
Implant female NOD SCID mice (22-25 g) from Envigo RMS, Inc., Madison, Wisconsin with 5×10e^6 MCF7 ER+ve breast cancer cells (ATCC, #HTB-22) subcutaneously in the right flank region in 1:1 HBSS+[…]™ solution (200 μL). Implant a […] pellet (0.18 mg/pellet, 90 day release, from Innovative research) subcutaneously 1 day prior to tumor cell implantation. […] Sacrifice animals using isoflurane anesthesia plus cervical dislocation. Flash freeze tumors and store at −80° C. until processing for RNA isolation and RT-qPCR assay. Collect blood in EDTA tubes, spin down for plasma, and freeze at −80° C. in a 96-well plate. Determine test compound exposures using mass spectrometry.
Pulverize tumors in liquid nitrogen and lyse in 1×RNA lysis buffer (from RNA isolation kits) using Matrix D beads (MP Biomedical, #6913-500) in a FASTPREP-24™ Cell Disrupter machine (MP Biomedical). […] Measure isolated RNA concentration by diluting samples in RNase free water and measuring the absorbance at 260 nm on a plate reader (SpectraMax190). Subtract the average 260 nm absorbance measurement of the blank (RNase free water only) from the 260 nm measurements of all other RNA samples. […]

MCF7 xenograft tumor = assay: In vivo tumor growth inhibition study in MCF7 xenograft tumor implanted in mice; conditions: MCF7 breast cancer xenograft, 30 mg/kg QD, oral gavage
Procedure: The purpose of the following xenograft tumor growth inhibition assay is to measure reduction in tumor volume in response to test compound administration.
Twenty-four hours prior to implantation of MCF7 cells, implant estrogen pellets (0.18 mg/pellet, […], 90-day release, Innovative Research) subcutaneously.

O=C(c1ccc(OCCN2CC(CF)C2)cc1)c1c(-c2ccc(C(F)(F)F)cc2F)cnc2cc(O)ccc12 [Example 1, (4-{2-[3-(Fluoromethyl)azetidin-1-yl]ethoxy}phenyl){3-[2-fluoro-4-(trifluoromethyl)phenyl]-7-hydroxyquinolin-4-yl}methanone]
IC50 (ERα receptor): 15.8 ± 9.04 nM
inhibition of PRα (PGR) expression [1]: 57%
Delta T/C % or Regression % (MCF7 xenograft tumor): −36%
